In patent EP4763845A1, “CYANO AROMATIC RING DERIVATIVE AND PHARMACEUTICAL USE THEREOF” (Haisco Pharmaceutical Group Co., Ltd., priority 2023, dated 2025):

These compounds were tested against T1, AR protein (Homo sapiens, UniProt P10275) (assay: Detection of AR degradation in VCaP cells (automated western blot)). Settings: AR protein in VCaP cells, concentration of 30 nM, 24 hours.
T1 construct: VCap is a human prostate cancer cell line purchased from ATCC; host or cells: VCaP human prostate cancer cells
T1 sequence (P10275 1-920): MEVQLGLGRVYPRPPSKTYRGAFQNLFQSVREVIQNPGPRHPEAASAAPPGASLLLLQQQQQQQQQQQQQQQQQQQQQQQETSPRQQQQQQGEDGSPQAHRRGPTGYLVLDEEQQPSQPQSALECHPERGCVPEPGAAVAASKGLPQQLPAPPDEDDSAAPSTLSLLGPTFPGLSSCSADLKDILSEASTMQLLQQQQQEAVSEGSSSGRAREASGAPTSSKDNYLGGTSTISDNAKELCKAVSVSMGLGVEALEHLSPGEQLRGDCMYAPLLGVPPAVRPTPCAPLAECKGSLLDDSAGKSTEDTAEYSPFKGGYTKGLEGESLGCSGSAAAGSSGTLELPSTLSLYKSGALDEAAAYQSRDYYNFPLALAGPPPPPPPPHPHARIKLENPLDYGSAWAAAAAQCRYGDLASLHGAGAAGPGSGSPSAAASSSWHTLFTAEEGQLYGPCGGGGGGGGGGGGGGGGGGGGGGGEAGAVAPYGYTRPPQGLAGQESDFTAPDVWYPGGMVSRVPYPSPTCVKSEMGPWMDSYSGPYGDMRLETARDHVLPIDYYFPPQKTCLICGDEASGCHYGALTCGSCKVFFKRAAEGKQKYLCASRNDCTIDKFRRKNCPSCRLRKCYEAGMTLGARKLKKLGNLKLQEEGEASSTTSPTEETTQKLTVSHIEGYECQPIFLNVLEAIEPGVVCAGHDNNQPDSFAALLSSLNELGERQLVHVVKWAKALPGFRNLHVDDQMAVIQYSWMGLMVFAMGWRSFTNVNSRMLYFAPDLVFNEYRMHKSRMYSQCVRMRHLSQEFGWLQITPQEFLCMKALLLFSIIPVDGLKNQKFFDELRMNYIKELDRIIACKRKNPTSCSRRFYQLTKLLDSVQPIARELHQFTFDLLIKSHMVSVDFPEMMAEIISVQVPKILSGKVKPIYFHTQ
Format: cell-based
Procedure: VCap is a human prostate cancer cell line purchased from ATCC and cultured under the following conditions: DMEM + 10% FBS + 1% penicillin-streptomycin solution. The cells were cultured in a 37°C, 5% CO2 incubator. The cells were seeded in a 6-well plate, with 5 × 10^5 cells/well. After seeding, compounds at various concentrations were added, and the plate was incubated for 24 hours in the 37°C, 5% CO2 incubator. Following incubation, the cells were harvested and RIPA lysis buffer (beyotime, Cat. P0013B) was added. The cells were lysed on ice for 15 minutes and centrifuged at 12,000 rpm at 4°C for 10 minutes. The supernatant protein samples were collected and the protein was quantified using the BCA kit (Beyotime, Cat. P0009). Then the protein was diluted to 0.25 mg/mL. The expressions of AR (CST, Cat.5153S) and the internal reference β-actin (CST, Cat. 3700S) were detected using a fully automated western blot quantitative analyser (Proteinsimple). Using the "Compass for SW" software, the relative peak area of AR was calculated when the internal reference area was 10,000. The proportion of AR relative to the solvent control group at various drug concentrations was calculated according to Equation (1), where ARtreat represents the relative peak area of the compound-treated group, and ARsolvent represents the relative peak area of the solvent control group. The processed data obtained from Equation (1) were analysed using GraphPad Prism 8.3.0 software, and the DC50 value was calculated using a four-parameter nonlinear regression model. The degradation rate at a specified concentration was determined as 100-AR%. AR% = ARtreat/ ARsolvent × 100% [formula]

SMILES | Degradation rate %
CC#CCOc1cc(O[C@H]2C(C)(C)[C@H](NC(=O)c3ccc(N4CCC(CN5CCN6c7cc(F)c(C(=O)N[C@H]8CCC(=O)NC8=O)cc7CC[C@@H]6C5)CC4)cc3)C2(C)C)ccc1C#N [Trifluoroacetate of compound 99] | >70%
COc1cc(O[C@H]2C(C)(C)[C@H](NC(=O)c3ccc(N4CCC5(CC4)CC(N4CCN6c7cc(F)c(C8CCC(=O)NC8=O)cc7CC[C@H]6C4)C5)cc3)C2(C)C)ccc1C#N (some centres unmarked) [Trifluoroacetate of compound 121] | >70%

The remaining lines, values ahead:

Degradation rate % | SMILES
>70% | CC1(C)[C@H](NC(=O)c2ccc(N3CCC(CN4CCN5c6cc(F)c(C(=O)N[C@H]7CCC(=O)NC7=O)cc6CC[C@@H]5C4)CC3)cc2)C(C)(C)[C@H]1Oc1ccc(C#N)c(C2CC2)c1 [Compound 119]
>70% | COc1cc(O[C@H]2C(C)(C)[C@H](NC(=O)c3ccc(N4CCC(CN5CCN6c7ncc(C8CCC(=O)NC8=O)cc7CC[C@@H]6C5)CC4)cc3)C2(C)C)ccc1C#N (some centres unmarked) [Compound 93]
>70% | CC1(C)[C@H](NC(=O)c2ccc(N3CCC(CN4CCN5c6cc(F)c(C7CCC(=O)NC7=O)cc6CC[C@@H]5C4)CC3)cc2)C(C)(C)[C@H]1Oc1ccc(C#N)c(C2CC2)c1 (some centres unmarked) [Compound 117]

Same assay, conditions: degradation of AR protein in VCaP cells, 24 hours incubation; read-out: DC50

SMILES | DC50
Cc1cc(O[C@H]2C(C)(C)[C@H](NC(=O)c3ccc(N4CCC(CN5CCN6c7cc(F)c(C8CCC(=O)NC8=O)cc7CC[C@H]6C5)CC4)cc3)C2(C)C)cc(C)c1C#N (some centres unmarked) [Compound 78] | < 100 nM
COc1cc(O[C@H]2C(C)(C)[C@H](NC(=O)c3ccc(N4CCC(CN5CCN6c7cc(F)c(C(=O)N[C@@H]8CCC(=O)NC8=O)cc7CC[C@H]6C5)CC4)cc3)C2(C)C)ccc1C#N [Compound 14] | < 100 nM
COc1cc(O[C@H]2C(C)(C)[C@H](NC(=O)c3ccc(N4CCC(N5CCN6c7cc(F)c(C8CCC(=O)NC8=O)cc7CC[C@H]6C5)CC4)cc3)C2(C)C)ccc1C#N (some centres unmarked) [Trifluoroacetate of compound 21] | < 100 nM
CC1(C)[C@H](NC(=O)c2ccc(N3CCC4(CC3)CC(CN3CCN5c6cc(F)c(N7CCC(=O)NC7=O)cc6CC[C@@H]5C3)C4)cc2)C(C)(C)[C@H]1Oc1ccc(C#N)c(Cl)c1 [Compound 56] | < 100 nM
COc1cc(O[C@H]2C(C)(C)[C@H](NC(=O)c3ccc(N4CCC5(CC4)CC(CN4CCN6c7cc(F)c(C8CCC(=O)NC8=O)cc7CC[C@H]6C4)C5)cc3)C2(C)C)ccc1C#N (some centres unmarked) [Trifluoroacetate of compound 10] | < 100 nM
COc1cc(O[C@H]2C(C)(C)[C@H](NC(=O)c3ccc(N4CCC(N5CCN6c7cc(F)c(C8CCC(=O)NC8=O)cc7CC[C@@H]6C5)CC4)cc3)C2(C)C)ccc1C#N (some centres unmarked) [Trifluoroacetate of compound 20] | < 100 nM
COc1cc(O[C@H]2C(C)(C)[C@H](NC(=O)c3ccc(N4CCC5(CC4)CC(CN4CCN6c7cc(F)c(C(=O)N[C@H]8CCC(=O)NC8=O)cc7CC[C@@H]6C4)C5)cc3)C2(C)C)ccc1C#N [Trifluoroacetate of compound 5] | < 100 nM
COc1cc(O[C@H]2C(C)(C)[C@H](NC(=O)c3ccc(N4CCC5(CC4)CC(N4CCN6c7cc(F)c(C(=O)N[C@H]8CCC(=O)NC8=O)cc7CC[C@H]6C4)C5)cc3)C2(C)C)ccc1C#N [Trifluoroacetate of compound 18] | < 100 nM
[2H]C([2H])([2H])Oc1cc(O[C@H]2C(C)(C)[C@H](NC(=O)c3ccc(N4CCC5(CC4)CC(CN4CCN6c7cc(F)c(C8CCC(=O)NC8=O)cc7CC[C@H]6C4)C5)cc3)C2(C)C)ccc1C#N (some centres unmarked) [Compound 43] | < 100 nM
CC1(C)[C@H](NC(=O)c2ccc(N3CCC4(CC3)CC(CN3CCN5c6cc(F)c(C7CCC(=O)NC7=O)cc6CC[C@H]5C3)C4)cc2)C(C)(C)[C@H]1Oc1ccc(C#N)c(Cl)c1 (some centres unmarked) [Compound 55] | < 100 nM
[2H]C([2H])([2H])Oc1cc(O[C@H]2C(C)(C)[C@H](NC(=O)c3ccc(N4CCC5(CC4)CC(CN4CCN6c7cc(F)c(C8CCC(=O)NC8=O)cc7CC[C@@H]6C4)C5)cc3)C2(C)C)ccc1C#N (some centres unmarked) [Compound 42] | < 100 nM
COc1cc(O[C@H]2C(C)(C)[C@H](NC(=O)c3ccc(N4CCC(N5CCN6c7cc(F)c(C(=O)N[C@H]8CCC(=O)NC8=O)cc7CC[C@@H]6C5)CC4)cc3)C2(C)C)ccc1C#N [Trifluoroacetate of compound 22] | < 100 nM
CC1(C)[C@H](NC(=O)c2ccc(N3CCC(CN4CCN5c6cc(F)c(C7CCC(=O)NC7=O)cc6CC[C@H]5C4)CC3)cc2)C(C)(C)[C@H]1Oc1ccc(C#N)c(Cl)c1 (some centres unmarked) [Compound 49] | < 100 nM
COc1cc(O[C@H]2C(C)(C)[C@H](NC(=O)c3ccc(N4CCC(N5CCN6c7cc(F)c(C(=O)N[C@@H]8CCC(=O)NC8=O)cc7CC[C@H]6C5)CC4)cc3)C2(C)C)ccc1C#N [Trifluoroacetate of compound 25] | < 100 nM

The next lines start with the values.

DC50 | SMILES
< 100 nM | Cc1cc(O[C@H]2C(C)(C)[C@H](NC(=O)c3ccc(N4CCC(CN5CCN6c7cc(F)c(N8CCC(=O)NC8=O)cc7CC[C@@H]6C5)CC4)cc3)C2(C)C)cc(C)c1C#N [Compound 82]
< 100 nM | COc1cc(O[C@H]2C(C)(C)[C@H](NC(=O)c3ccc(N4CCC(CN5CCN6c7cc(F)c(N8CCC(=O)NC8=O)cc7CC[C@@H]6C5)CC4)nn3)C2(C)C)ccc1C#N [Trifluoroacetate of compound 62]
< 100 nM | CC1(C)[C@H](NC(=O)c2ccc(N3CCC(CN4CCN5c6cc(F)c(N7CCC(=O)NC7=O)cc6CC[C@H]5C4)CC3)cc2)C(C)(C)[C@H]1Oc1ccc(C#N)c(Cl)c1 [Compound 51]
< 100 nM | Cc1cc(O[C@H]2C(C)(C)[C@H](NC(=O)c3ccc(N4CCC(CN5CCN6c7cc(F)c(N8CCC(=O)NC8=O)cc7CC[C@H]6C5)CC4)cc3)C2(C)C)cc(C)c1C#N [Compound 80]
< 100 nM | CC1(C)[C@H](NC(=O)c2ccc(N3CCC4(CC3)CC(CN3CCN5c6cc(F)c(C7CCC(=O)NC7=O)cc6CC[C@@H]5C3)C4)cc2)C(C)(C)[C@H]1Oc1ccc(C#N)c(Cl)c1 (some centres unmarked) [Compound 54]
< 100 nM | COc1cc(O[C@H]2C(C)(C)[C@H](NC(=O)c3ccc(N4CCC5(CC4)CC(N4CCN6c7cc(F)c(N8CCC(=O)NC8=O)cc7CC[C@H]6C4)C5)cc3)C2(C)C)ccc1C#N [Trifluoroacetate of compound 84]
< 100 nM | CC1(C)[C@H](NC(=O)c2ccc(N3CCC(CN4CCN5c6cc(F)c(N7CCC(=O)NC7=O)cc6CC[C@@H]5C4)CC3)cc2)C(C)(C)[C@H]1Oc1ccc(C#N)c(Cl)c1 [Compound 50]
< 100 nM | CC1(C)[C@H](NC(=O)c2ccc(N3CCC(CN4CCN5c6cc(F)c(C7CCC(=O)NC7=O)cc6CC[C@@H]5C4)CC3)cc2)C(C)(C)[C@H]1Oc1ccc(C#N)c(Cl)c1 (some centres unmarked) [Compound 48]
< 100 nM | COc1cc(O[C@H]2C(C)(C)[C@H](NC(=O)c3ccc(N4CCC(CN5CCN6c7ccc(N8CCC(=O)NC8=O)cc7CCC6C5)CC4)cc3)C2(C)C)ccc1C#N (some centres unmarked) [Compound 15]
< 100 nM | [2H]C([2H])([2H])Oc1cc(O[C@H]2C(C)(C)[C@H](NC(=O)c3ccc(N4CCC5(CC4)CC(CN4CCN6c7cc(F)c(N8CCC(=O)NC8=O)cc7CC[C@@H]6C4)C5)cc3)C2(C)C)ccc1C#N [Trifluoroacetate of compound 44]
< 100 nM | COc1cc(O[C@H]2C(C)(C)[C@H](NC(=O)c3ccc(N4CCC(CN5CCN6c7cc(F)c(N8CCC(=O)NC8=O)cc7CC[C@H]6C5)CC4)nn3)C2(C)C)ccc1C#N [Trifluoroacetate of compound 63]
< 100 nM | COc1cc(O[C@H]2C(C)(C)[C@H](NC(=O)c3ccc(N4CCC(CN5CCN6c7ncc(C8CCC(=O)NC8=O)cc7CC[C@H]6C5)CC4)cc3)C2(C)C)ccc1C#N (some centres unmarked) [Compound 83]
< 100 nM | COc1cc(O[C@H]2C(C)(C)[C@H](NC(=O)c3ccc(N4CCC5(CC4)CC(CN4CCN6c7cc(F)c(C8CCC(=O)NC8=O)cc7CC[C@@H]6C4)C5)cc3)C2(C)C)ccc1C#N (some centres unmarked) [Trifluoroacetate of compound 9]
